Laboratory results reported in patent US20070015702A1, “Method of treatment and/or prevention of neuropathic pain” (Asahi Kasei Pharma Corporation, priority 2005, published 2007).
Read-outs that look alike come from different tables or passages of the source.

Tests used:
[1] = tested on: chronic constriction injury model (CCI model)
Excerpt: Under anesthesia with ether, a rat was placed in prone position, and while touching the right femur, the skin was dissected right above it. Biceps femoris was peeled at the center of the femur, and exposed by about 5 mm trying not to injure the sciatic nerve. Using 4-0 blade silk, the sciatic nerve was liegted loosely 4 times in turn from the peripheral side. Thereafter, the fascia and the skin were sutured.
Using withdrawal threshold and body weight on the 8th day after the constriction operation as indices, the rats were divided into a CCI-vehicle group (12 rats), and CCI-ECT 0.75 mU/kg/week, CCI-ECT 7.5 mU/kg/week and CCI-ECT 75 mU/kg/week groups (each 12 rats), by a randomization method (SAS system, version 8.2). […] Body weight used for administration was estimated body weight after initiation of administration and calculated by multiplying body weight at start of administration by body weight increase coefficient (1.1) obtained in the preliminary experiment. […]
First, the position of a pressure needle was controlled to confirm that an arm was horizontal to the thickness of a rat leg. […] When the rat withdrew the limb, the foot pedal was released, and a numerical value 0 to 25) of the moving matter on a scale was read. The read numerical value was multiplied by 20, to convert into pressed weight (withdrawal threshold). […]

[2] = tested on: chronic constriction injury model (CCI model); assay: Continuous administration of elcatonin in CCI model, hyperalgesia, withdrawal latency (BASILE Plantar Test); format: in vivo, rat
Experimental: An apparatus measures a time (withdrawal latency) until escaping after giving nociceptive heat stimulus to a posterior limb in a rat under unrestrained condition. Right hindlimb was measured as a measurement leg. Initially, a rat was placed in an acryl box on a glass plate, and domesticated for about 5 minutes. Amoving type I.R (infrared) generator (I.R. vessel) was placed under the glass plate, and “sight” cross (I.R. irradiation position) inscribed on an upper panel of the I.R. vessel was adjusted to inside of six pads on the right hind paw. In this procedure, contact of the glass plate and hind paw was confirmed. Subsequently, a start key was pushed and heat stimulation was imparted, and withdrawal latency for escaping behavior of a rat of withdrawing limb was measured. When escaping behavior is caused, a switch is automatically turned off, and reaction time is counted. […] Measurement was carried out under clean condition so that there was no feces and no urine on the glass plate.

[3] = tested on: chronic constriction injury model (CCI model); assay: Intermittent subcutaneous administration of elcatonin in CCI model, nociceptive threshold; format: in vivo, rat
Experimental: On the 12th day or later after the constriction operation, ECT or vehicle was administered subcutaneously at 0.05 ml/B.W.100 g.

[4] = rat, in vivo, sc
Experimental: Measurement of serum calcium value was conducted using calcium C-test wako (Wako).

[5] = Shinyaku to Rinsho, 1990, vol. 39, no. 2; cited from earlier work

Substance | time after initiation of administration at which significant analgesic action was recognized ([1]; continuous s.c. administration, CCI rats) | analgesic action (nociceptive threshold) ([1]; continuous s.c. mini osmotic pump, 0.75, 7.5, 75 mU/kg/week, from 11th day after constriction operation, vs vehicle group, Williams test) | extent of analgesic action across dose range ([2]; 0.00075-75 U/kg/week continuous) | analgesic action on continued administration ([2]; administration continued for 2 weeks) | analgesic action (withdrawal latency) ([2]; next day after initiation of continuous administration (12th day after operation), 0.00075, 0.0075, 0.075, 7.5, 75 U/kg/week, vs vehicle group) | analgesic action (nociceptive threshold) ([3]; 15 U/kg s.c. 3 times a week) | day after initiation of administration from which the threshold initiated to recover ([3]; 15 U/kg s.c. 5 times a week) | effect on nociceptive threshold until 3-rd day after initiation of administration ([3]; 15 U/kg s.c. intermittent, 3 or 5 times a week) | manifestation of analgesic effect ([3]; intermittent administration, dose further increased) | dose per unit time (second) at which serum calcium value changed (serum calcium alteration threshold) [4] | maximum effective dose of neuropathic pain treatment by continuous administration ([2]; Example 2, rat) | maximum effective dose of neuropathic pain treatment by continuous administration, in terms of second ([2]; Example 2, rat) | ratio of calcitonin dose altering serum calcium value, rat versus human [5]
1-butylic acid-7-(L-2-aminobutylic acid)-26-L-aspartic acid-27-L-valine-29-L-alaninecalcitonin [elcatonin] | 16 h | significant analgesic action | approximately constant | continuance of an analgesic action | significant analgesic action was confirmed in all elcatonin administration groups | a significant action was not observed | 4 days | an effect was not observed | delay of manifestation of an analgesic effect was not improved | – | – | – | –
calcitonin | – | – | – | – | – | – | – | – | – | 15 mU/kg/second | 75 U/kg/week | 0.124 mU/kg/second | 25 fold
